Data set [1] is described as follows: Stability of the compound in presence of alpha-chymotrypsin (unknown origin) assessed as degradation measured after 360 mins by HPLC analysis. The data set is classed as ADME, Homo sapiens. The note with it: read-out: Drug degradation.
The nature of data set [2]: Stability of the compound in presence of pepsin (unknown origin) assessed as degradation measured after 120 mins by HPLC analysis. The note with it: read-out: Drug degradation. The data set is classed as ADME, Homo sapiens.
Data set [3] in a line: Stability of the compound in presence of pepsin (unknown origin) assessed as degradation measured after 60 mins by HPLC analysis. The data set is classed as ADME, Homo sapiens. The note with it: read-out: Drug degradation.
For another data set, the target named is Vasopressin V2 receptor (Homo sapiens, UniProt P30518). The data set can be described thus: Binding affinity to vasopression V2 receptor (unknown origin) on isolated cell membrane by vasopression competition binding assay.
Vasopressin V2 receptor, sequence (P30518 whole entry): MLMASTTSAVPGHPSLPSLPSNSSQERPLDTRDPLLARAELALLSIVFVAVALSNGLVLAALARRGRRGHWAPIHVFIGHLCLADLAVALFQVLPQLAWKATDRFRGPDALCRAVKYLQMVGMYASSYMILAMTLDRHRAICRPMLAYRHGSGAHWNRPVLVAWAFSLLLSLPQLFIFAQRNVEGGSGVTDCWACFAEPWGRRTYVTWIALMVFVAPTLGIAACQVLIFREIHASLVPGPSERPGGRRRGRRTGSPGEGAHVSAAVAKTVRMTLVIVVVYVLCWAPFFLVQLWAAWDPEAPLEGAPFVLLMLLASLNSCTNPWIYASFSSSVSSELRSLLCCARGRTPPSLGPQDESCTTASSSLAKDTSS
Data set [4] in a line: Stability of the compound in presence of pronase (unknown origin) assessed as degradation measured after 120 mins by HPLC analysis. The data set is classed as ADME. The note with it: read-out: Drug degradation.
Data set [5] in a line: Stability of the compound in presence of alpha-chymotrypsin (unknown origin) assessed as degradation measured after 120 mins by HPLC analysis. The data set is classed as ADME, Homo sapiens. The note with it: read-out: Drug degradation.
Data set [6] is described as follows: Stability of the compound in presence of pepsin (unknown origin) assessed as degradation measured after 360 mins by HPLC analysis. The data set is classed as ADME, Homo sapiens. The note with it: read-out: Drug degradation.
Data set [7] is described as follows: Stability of the compound in presence of pronase (unknown origin) assessed as degradation measured after 360 mins by HPLC analysis. The data set is classed as ADME. The note with it: read-out: Drug degradation.
Data set [8] can be described thus: Stability of the compound in presence of alpha-chymotrypsin (unknown origin) assessed as degradation measured after 60 mins by HPLC analysis. The data set is classed as ADME, Homo sapiens. The note with it: read-out: Drug degradation.
The nature of data set [9]: Stability of the compound in presence of pronase (unknown origin) assessed as degradation measured after 60 mins by HPLC analysis. The data set is classed as ADME. The note with it: read-out: Drug degradation.

Square brackets hold non-standard residues; d marks the D form. Peptide text beside a SMILES is read from it. Dap = NC[C@H](N)C(=O)O

For `NC(=O)CC[C@@H]1NC(=O)[C@H](Cc2ccccc2)NC(=O)[C@H](Cc2ccc(O)cc2)NC(=O)[C@H](Cc2ccc(O)cc2)NC(=O)CNC(=O)[C@H](CC(N)=O)NC1=O` (cyclo(FQNGYY)), the metabolised at 6 h came to 24.7% in data set [1], 5.23% in [6] and 64.2% in data set [7]. Moreover, the metabolised at 2 h was found to be 10.2% in [2], 50.2% in [4] and 1.49% in [5]. Besides, the values for the metabolised at 1 h in [3], in data set [8] and in [9] were 5.39%, -0.98% and 27.9%, respectively. Besides, the IC50 (usually the point on the concentration scale where inhibition reaches its midpoint) at Vasopressin V2 receptor turned out to be 2 µM.

As for `NC(=O)CC[C@@H]1NC(=O)[C@H](Cc2ccccc2)NC(=O)[C@H](Cc2ccc(O)cc2)NC(=O)[C@@H](N)CSSC[C@@H](C(=O)N2CCC[C@H]2C(=O)N[C@@H](CCCN=C(N)N)C(=O)NCC(N)=O)NC(=O)[C@H](CC(N)=O)NC1=O` [VASOPRESSIN], the metabolised at 6 h in [1] was 46.1%; in data set [6], 80.1%; in data set [7], 48.2%. Moreover, the metabolised at 2 h in data set [2] came out at 78.6%; in data set [4] it was 15.9%; in [5] it was 32.1%. In addition, the metabolised at 1 h turned out to be 79.8% in [3], 18.7% in data set [8] and 4.4% in data set [9].

For the compound `CC[C@H](C)[C@@H]1NC(=O)[C@H](Cc2ccc(O)cc2)NC(=O)[C@@H](N)CSSC[C@@H](C(=O)N2CCC[C@H]2C(=O)N[C@@H](CC(C)C)C(=O)NCC(N)=O)NC(=O)[C@H](CC(N)=O)NC(=O)[C@H](CCC(N)=O)NC1=O` [OXYTOCIN], the values for the metabolised at 6 h in data set [1] and in data set [7] were 74.6% and 100%, respectively. The metabolised at 2 h in data set [4] came out at 96.8%; in [5], 43.2%. The metabolised at 1 h in [8] was determined as 25.1%; in [9], 69.6%.

Take `NC[C@@H]1NC(=O)CNC(=O)[C@H](CC(N)=O)NC(=O)[C@H](CCC(N)=O)NC(=O)[C@H](Cc2ccccc2)NC(=O)[C@H](Cc2ccc(O)cc2)NC1=O` (cyclo([Dap]YFQNG)): the figures for the metabolised at 6 h in [1], in data set [6] and in data set [7] were 20.3%, 2.08% and 0.882%, respectively. For the same compound, the metabolised at 2 h in data set [2] was found to be 3.52%; in [4], 0.323%; in [5] it was 7.08%. Moreover, the metabolised at 1 h was 0.716% in data set [3], 6.62% in data set [8] and -2.07% in [9]. The half-inhibitory concentration (IC50) on Vasopressin V2 receptor is 10.2 µM.

For the compound `CC[C@H](C)[C@@H]1NC(=O)[C@H](Cc2ccc(O)cc2)NC(=O)[C@H](CN)NC(=O)CNC(=O)[C@H](CC(N)=O)NC(=O)[C@H](CCC(N)=O)NC1=O` (cyclo([Dap]YIQNG)), the metabolised at 6 h in [1] is 0.0955%; in data set [6] it was 4.66%; in data set [7], 6.2%. Further, the metabolised at 2 h in data set [2] is -0.41%; in [4], 2.99%; in [5], 0%. Moreover, the metabolised at 1 h in data set [3] turned out to be 2.34%; in [8] it was 0.136%; in [9], 11.5%.

The values are drawn from ChEMBL document CHEMBL2331539, “A comparative protease stability study of synthetic macrocyclic peptides that mimic two endocrine hormones” (Bioorg Med Chem Lett, 2013).
